Experimental data published in patent publication US8642609B2, “Modulators of ATP-binding cassette transporters” (Vertex Pharmaceuticals Incorporated, priority 2003, dated 2014).

Biological target: T1, ΔF508-CFTR (Homo sapiens, UniProt P13569, DEL508-508)
T1 construct: expressed in transfected cells
Experiment: Membrane potential optical assay (FRET/VIPR), identification of correction compounds
Assay type: cell-based
Details: for Emax: relative efficacy
Description: I) Membrane Potential Optical Methods for Assaying ΔF508-CFTR Modulation Properties of Compounds
The optical membrane potential assay utilized voltage-sensitive FRET sensors described by Gonzalez and Tsien (See, Gonzalez, J. E. and R. Y. Tsien (1995) “Voltage sensing by fluorescence resonance energy transfer in single cells” Biophys J 69(4): 1272-80, and Gonzalez, J. E. and R. Y. Tsien (1997) “Improved indicators of cell membrane potential that use fluorescence resonance energy transfer” Chem Biol 4(4): 269-77) in combination with instrumentation for measuring fluorescence changes such as the Voltage/Ion Probe Reader (VIPR) (See, Gonzalez, J. E., K. Oades, et al. (1999) “Cell-based assays and instrumentation for screening ion-channel targets” Drug Discov Today 4(9): 431-439).
These voltage sensitive assays are based on the change in fluorescence resonant energy transfer (FRET) between the membrane-soluble, voltage-sensitive dye, DiSBAC2(3), and a fluorescent phospholipid, CC2-DMPE, which is attached to the outer leaflet of the plasma membrane and acts as a FRET donor. Changes in membrane potential (Vm) cause the negatively charged DiSBAC2(3) to redistribute across the plasma membrane and the amount of energy transfer from CC2-DMPE changes accordingly. The changes in fluorescence emission were monitored using VIPR™ II, which is an integrated liquid handler and fluorescent detector designed to conduct cell-based screens in 96- or 384-well microtiter plates.
Identification of Correction Compounds
To identify small molecules that correct the trafficking defect associated with ΔF508-CFTR; a single-addition HTS assay format was developed. The cells were incubated in serum-free medium for 16 hrs at 37° C. in the presence or absence (negative control) of test compound. As a positive control, cells plated in 384-well plates were incubated for 16 hrs at 27° C. to “temperature-correct” ΔF508-CFTR. The cells were subsequently rinsed 3× with Krebs Ringers solution and loaded with the voltage-sensitive dyes. To activate ΔF508-CFTR, 10 μM forskolin and the CFTR potentiator, genistein (20 μM), were added along with Cl^−-free medium to each well. The addition of Cl^−-free medium promoted Cl^− efflux in response to ΔF508-CFTR activation and the resulting membrane depolarization was optically monitored using the FRET-based voltage-sensor dyes.
NIH3T3 mouse fibroblasts stably expressing ΔF508-CFTR are used for optical measurements of membrane potential. The cells are maintained at 37° C. in 5% CO2 and 90% humidity in Dulbecco's modified Eagle's medium supplemented with 2 mM glutamine, 10% fetal bovine serum, 1×NEAA, β-ME, 1× pen/strep, and 25 mM HEPES in 175 cm^2 culture flasks. For all optical assays, the cells were seeded at 30,000/well in 384-well matrigel-coated plates and cultured for 2 hrs at 37° C. before culturing at 27° C. for 24 hrs. for the potentiator assay. For the correction assays, the cells are cultured at 27° C. or 37° C. with and without compounds for 16-24 hours B) Electrophysiological Assays for assaying ΔF508-CFTR modulation properties of compounds

T1 sequence (P13569 with tags, fused parts or gaps DEL508-508): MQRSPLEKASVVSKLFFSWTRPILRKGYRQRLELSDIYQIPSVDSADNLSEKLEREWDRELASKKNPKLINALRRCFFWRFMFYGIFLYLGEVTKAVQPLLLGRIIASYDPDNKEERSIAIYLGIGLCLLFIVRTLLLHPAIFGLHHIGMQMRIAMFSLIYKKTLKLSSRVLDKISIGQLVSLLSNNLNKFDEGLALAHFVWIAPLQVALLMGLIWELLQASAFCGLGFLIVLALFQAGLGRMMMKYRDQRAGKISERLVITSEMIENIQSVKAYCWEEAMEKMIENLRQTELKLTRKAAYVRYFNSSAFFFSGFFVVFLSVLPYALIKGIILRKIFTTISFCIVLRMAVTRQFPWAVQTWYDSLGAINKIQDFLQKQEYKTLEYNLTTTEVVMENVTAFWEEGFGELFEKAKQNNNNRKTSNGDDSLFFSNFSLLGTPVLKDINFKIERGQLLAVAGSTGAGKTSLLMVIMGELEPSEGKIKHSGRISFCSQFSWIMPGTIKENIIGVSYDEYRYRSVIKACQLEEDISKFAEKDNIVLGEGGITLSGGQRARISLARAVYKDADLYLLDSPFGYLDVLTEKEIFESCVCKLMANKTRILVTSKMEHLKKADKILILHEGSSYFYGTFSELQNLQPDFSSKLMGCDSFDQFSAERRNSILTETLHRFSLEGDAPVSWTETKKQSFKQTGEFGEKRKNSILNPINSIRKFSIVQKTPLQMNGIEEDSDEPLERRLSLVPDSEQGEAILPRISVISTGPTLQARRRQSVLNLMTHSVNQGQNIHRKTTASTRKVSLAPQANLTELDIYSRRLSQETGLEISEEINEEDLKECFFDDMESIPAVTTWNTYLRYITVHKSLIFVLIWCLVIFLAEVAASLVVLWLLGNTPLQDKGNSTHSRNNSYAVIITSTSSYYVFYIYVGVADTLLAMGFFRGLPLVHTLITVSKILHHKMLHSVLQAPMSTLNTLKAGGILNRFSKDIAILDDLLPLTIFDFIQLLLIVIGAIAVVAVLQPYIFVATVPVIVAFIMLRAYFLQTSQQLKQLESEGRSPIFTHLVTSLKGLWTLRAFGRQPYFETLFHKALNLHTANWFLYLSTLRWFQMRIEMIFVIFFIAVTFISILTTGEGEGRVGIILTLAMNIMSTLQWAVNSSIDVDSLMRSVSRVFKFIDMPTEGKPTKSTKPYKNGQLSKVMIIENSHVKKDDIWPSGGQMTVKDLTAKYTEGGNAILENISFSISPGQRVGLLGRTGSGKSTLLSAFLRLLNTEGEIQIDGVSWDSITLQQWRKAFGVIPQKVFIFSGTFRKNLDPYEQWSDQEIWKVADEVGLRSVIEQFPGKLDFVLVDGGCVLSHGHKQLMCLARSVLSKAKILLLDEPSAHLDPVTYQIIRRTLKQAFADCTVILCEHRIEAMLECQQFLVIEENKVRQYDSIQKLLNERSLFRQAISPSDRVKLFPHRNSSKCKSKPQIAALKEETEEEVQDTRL

Row | SMILES | EC50 [µM] | Emax [%]
1 | CC(c1nc2ccc(Cl)cc2c(=O)n1C)N1CCN(c2ccc(Cl)cc2)CC1 (stereo not drawn) [compound 44] | < 10 | 25 to 100
2 | CC(c1nc2ccccc2c(=O)n1C)N1CCN(S(=O)(=O)c2ccc(Cl)c(Cl)c2)CC1 (stereo not drawn) [compound 241] | < 10 | > 100
3 | CC(c1nc2ccccc2c(=O)[nH]1)N1CCN(S(=O)(=O)c2ccc(Br)cc2)CC1 (stereo not drawn) [compound 127] | 10 to 25 | 25 to 100
4 | CC(c1nc2ccccc2c(=O)n1C)N1CCN(S(=O)(=O)c2ccc(S(C)(=O)=O)cc2)CC1 (stereo not drawn) [compound 262] | 25 to 60 | < 25
5 | COc1cc(C(=O)N2CCN(C(C)c3nc4ccc(Cl)cc4c(=O)n3C)CC2)cc(OC)c1OC (stereo not drawn) [compound 14] | 25 to 60 | < 25
6 | CCN(CC)c1nc(C(C)N2CCN(S(=O)(=O)c3ccc(Br)cc3)CC2)nc2ccccc12 (stereo not drawn) [compound 222] | < 10 | 25 to 100
7 | COc1ccc(S(=O)(=O)N2CCN(C(C)c3nc4ccccc4c(=O)n3CCNC(C)=O)CC2)cc1 (stereo not drawn) [compound 288] | 25 to 60 | < 25
8 | CC(c1nc2ccc(Cl)cc2c(=O)n1C)N1CCN(S(=O)(=O)c2ccc(Br)cc2)CC1 (stereo not drawn) [compound 42] | < 10 | 25 to 100
9 | Cc1ccc(C(=O)N2CCN(C(C)c3nc4ccccc4c(=O)n3C)CC2)cc1 (stereo not drawn) [compound 74] | 10 to 25 | < 25
10 | CCCOc1nc(C(C)N2CCN(S(=O)(=O)c3ccc(Br)cc3)CC2)nc2ccccc12 (stereo not drawn) [compound 216] | < 10 | > 100
11 | Cc1ccc(S(=O)(=O)N2CCN(C(C)c3nc4cccc(Cl)c4c(=O)n3C)CC2)cc1 (stereo not drawn) [compound 107] | 10 to 25 | < 25
12 | COc1ccc(S(=O)(=O)N2CCC(NC(C)c3nc4ccccc4c(=O)n3C)C2)cc1 (stereo not drawn) [compound 224] | 25 to 60 | < 25
13 | CC(c1nc2ccccc2c(=O)n1C)N1CCN(C(=O)c2ccccc2Cl)CC1 (stereo not drawn) [compound 82] | 25 to 60 | < 25
14 | COc1ccc(S(=O)(=O)N2CCC(N(C)C(C)c3nc4ccccc4c(=O)n3C)CC2)cc1 (stereo not drawn) [compound 314] | 25 to 60 | 25 to 100
15 | COc1ccc(S(=O)(=O)N2CCN(C(C)c3nc(OC4CCCCC4)c4cc(F)ccc4n3)CC2)cc1 (stereo not drawn) [compound 374] | < 10 | 25 to 100
16 | CCCn1c(C(C)N2CCN(S(=O)(=O)c3c(C)cc(C)cc3C)CC2)nc2ccccc2c1=O (stereo not drawn) [compound 21] | 25 to 60 | 25 to 100
17 | CCCn1c(C(C)N2CCN(S(=O)(=O)c3ccc(F)cc3)CC2)nc2ccccc2c1=O (stereo not drawn) [compound 28] | 10 to 25 | 25 to 100
18 | CC(c1nc2ccccc2c(=O)n1C)N1CCN(S(=O)(=O)c2cccc(C(F)(F)F)c2)CC1 (stereo not drawn) [compound 7] | 10 to 25 | 25 to 100
19 | Cc1ccc(S(=O)(=O)N2CCN(C(C)c3nc4ccc(Br)cc4c(=O)n3C)CC2)cc1 (stereo not drawn) [compound 115] | 10 to 25 | < 25
20 | COc1ccc(S(=O)(=O)N2CCN(C(=O)c3nc(N4CCCCC4)c4ccccc4n3)CC2)cc1 [compound 402] | 25 to 60 | < 25
21 | CC(c1nc2ccccc2c(=O)n1C)N1CCC(NS(=O)(=O)c2ccc(Br)cc2)C1 (stereo not drawn) [compound 163] | 25 to 60 | < 25
22 | COc1ccc(S(=O)(=O)N2CCN(C(C)c3nc(OC4CCCC4)c4cc(F)ccc4n3)CC2)cc1 (stereo not drawn) [compound 375] | < 10 | > 100
23 | COc1ccc(S(=O)(=O)N2CCN(C(C)c3nc(OC4CCOCC4)c4ccccc4n3)CC2)cc1 (stereo not drawn) [compound 300] | 25 to 60 | > 100
24 | COc1ccc(S(=O)(=O)N2CCN(C(C)c3nc(OC4CCC(C)CC4)c4ccccc4n3)CC2)cc1 (stereo not drawn) [compound 399] | < 10 | 25 to 100
25 | COc1ccc(S(=O)(=O)N2CCN(C(C)c3nc(OC4CCCCC4)c4ccccc4n3)CC2)cc1 (stereo not drawn) [compound 298] | < 10 | > 100
26 | COc1ccc(S(=O)(=O)N2CCN(C(C)c3nc(N4CCC(Cc5ccccc5)CC4)c4ccccc4n3)CC2)cc1 (stereo not drawn) [compound 389] | < 10 | > 100

Row | SMILES | EC50 [µM] | Emax [%]
27 | CC(c1nc2ccccc2c(=O)n1C)N1CCN(S(=O)(=O)c2cccc(F)c2)CC1 (stereo not drawn) [compound 248] | 25 to 60 | < 25
28 | CC(c1nc2ccccc2c(=O)n1C)N1CCN(C(=O)c2ccc(C(F)(F)F)cc2)CC1 (stereo not drawn) [compound 54] | 25 to 60 | 25 to 100
29 | CC(c1nc2ccccc2c(=O)n1C)N1CCN(S(=O)(=O)c2cccc(C#N)c2)CC1 (stereo not drawn) [compound 279] | 25 to 60 | < 25
30 | CC(c1nc2ccc(Cl)cc2c(=O)n1C)N1CCN(C(=O)Nc2ccccc2)CC1 (stereo not drawn) [compound 43] | 25 to 60 | < 25
31 | Cc1ccc(S(=O)(=O)N2CCN(C(C)c3nc4ccccc4c(=O)[nH]3)CC2)cc1 (stereo not drawn) [compound 129] | 10 to 25 | < 25
32 | COc1ccc(S(=O)(=O)N2CCN(C(C)c3nc4ccccc4c(=O)n3CC(C)C)CC2)cc1 (stereo not drawn) [compound 331] | < 10 | > 100
33 | CC(c1nc2ccccc2c(=O)n1C)N(CCN(C)S(=O)(=O)c1ccc(Br)cc1)S(=O)(=O)c1ccc(Br)cc1 (stereo not drawn) [compound 202] | 25 to 60 | < 25
34 | CC(c1ncc2ccccc2n1)N1CCN(S(=O)(=O)c2ccc(Br)cc2)CC1 (stereo not drawn) [compound 313] | 25 to 60 | 25 to 100
35 | CC(c1nc2ccccc2c(=O)n1C)N1CCN(S(=O)(=O)c2cccc3nsnc23)CC1 (stereo not drawn) [compound 282] | 25 to 60 | < 25
36 | CC(c1nc2cc(Cl)ccc2c(=O)n1C)N1CCN(C(=O)c2ccc(F)cc2)CC1 (stereo not drawn) [compound 121] | 10 to 25 | < 25
37 | CCCC(c1nc2ccccc2c(=O)n1CC)N1CCN(S(=O)(=O)c2ccc(OC)cc2)CC1 (stereo not drawn) [compound 341] | < 10 | > 100
38 | COc1ccc(S(=O)(=O)NCCN(C(C)c2nc3ccccc3c(=O)n2C)S(=O)(=O)c2ccc(OC)cc2)cc1 (stereo not drawn) [compound 197] | 25 to 60 | 25 to 100
39 | COc1ccc(S(=O)(=O)N2CCN(C(C)c3nc4ccc(S(C)(=O)=O)cc4c(=O)n3C)CC2)cc1 (stereo not drawn) [compound 140] | 10 to 25 | 25 to 100
40 | Cc1ccc(C(=O)N2CCN(C(C)c3nc4cc(Cl)ccc4c(=O)n3C)CC2)cc1 (stereo not drawn) [compound 120] | 10 to 25 | < 25
41 | CCNc1nc(C(C)N2CCN(S(=O)(=O)c3ccc(Cl)cc3)CC2)nc2ccccc12 (stereo not drawn) [compound 234] | 10 to 25 | 25 to 100
42 | COc1ccc(S(=O)(=O)N2CCCN(C(C)c3nc4ccccc4c(=O)n3C)CC2)cc1 (stereo not drawn) [compound 170] | 25 to 60 | 25 to 100
43 | COc1cc2nc(C(C)N3CCN(S(=O)(=O)c4ccc(Br)cc4)CC3)n(C)c(=O)c2cc1OC (stereo not drawn) [compound 284] | 25 to 60 | 25 to 100
44 | Cc1nn(C)c(Cl)c1S(=O)(=O)N1CCN(C(C)c2nc3ccccc3c(=O)n2C)CC1 (stereo not drawn) [compound 257] | 25 to 60 | < 25
45 | COc1ccc(S(=O)(=O)N2CCN(C(C)c3nc(N4CCCC(CO)C4)c4ccccc4n3)CC2)cc1 (stereo not drawn) [compound 344] | 10 to 25 | 25 to 100
46 | CC(c1nc2ccccc2c(=O)n1C)N1CCN(S(=O)(=O)c2ccc(S(=O)(=O)c3ccccc3)s2)CC1 (stereo not drawn) [compound 265] | 25 to 60 | < 25
47 | CC(=O)c1ccc(S(=O)(=O)N2CCN(C(C)c3nc4ccccc4c(=O)n3C)CC2)cc1 (stereo not drawn) [compound 239] | 25 to 60 | < 25
48 | CC(c1nc2ccccc2c(=O)n1C)N1CCC(NS(=O)(=O)c2ccc(Cl)cc2)CC1 (stereo not drawn) [compound 165] | < 10 | 25 to 100
49 | COc1ccc(S(=O)(=O)N2CCN(C(C)c3nc(N4CCC(C)CC4)c4ccccc4n3)CC2)cc1 (stereo not drawn) [compound 320] | < 10 | > 100
50 | COc1ccc(S(=O)(=O)N2CCN(C(C)c3nc(OCC4COCO4)c4ccccc4n3)CC2)cc1 (stereo not drawn) [compound 294] | 25 to 60 | 25 to 100
51 | CC(c1nc2ccccc2c(=O)n1C)N1CCN(S(=O)(=O)c2ccc(SC(F)(F)F)cc2)CC1 (stereo not drawn) [compound 352] | < 10 | 25 to 100
